The text below walks through data of article PMC8989868, “Structural mechanism of TRPM7 channel regulation by intracellular magnesium” (Cellular and Molecular Life Sciences: CMLS, 2022).

The target in this experiment is T1, mouse TRPM7 (Mus musculus, UniProt Q923J1).
T1 construct: full-length channel-kinase, untagged, in bicistronic pIRES2-EGFP, transiently expressed in HEK293T cells; homotetramer
Nature of the experiment: whole-cell patch clamp, current at +[…] mV. Particulars: external NS8593, inhibitor; Mg2+-free intracellular solution; pH 7.2. The format is cell-based.

T1 sequence (Q923J1 whole entry): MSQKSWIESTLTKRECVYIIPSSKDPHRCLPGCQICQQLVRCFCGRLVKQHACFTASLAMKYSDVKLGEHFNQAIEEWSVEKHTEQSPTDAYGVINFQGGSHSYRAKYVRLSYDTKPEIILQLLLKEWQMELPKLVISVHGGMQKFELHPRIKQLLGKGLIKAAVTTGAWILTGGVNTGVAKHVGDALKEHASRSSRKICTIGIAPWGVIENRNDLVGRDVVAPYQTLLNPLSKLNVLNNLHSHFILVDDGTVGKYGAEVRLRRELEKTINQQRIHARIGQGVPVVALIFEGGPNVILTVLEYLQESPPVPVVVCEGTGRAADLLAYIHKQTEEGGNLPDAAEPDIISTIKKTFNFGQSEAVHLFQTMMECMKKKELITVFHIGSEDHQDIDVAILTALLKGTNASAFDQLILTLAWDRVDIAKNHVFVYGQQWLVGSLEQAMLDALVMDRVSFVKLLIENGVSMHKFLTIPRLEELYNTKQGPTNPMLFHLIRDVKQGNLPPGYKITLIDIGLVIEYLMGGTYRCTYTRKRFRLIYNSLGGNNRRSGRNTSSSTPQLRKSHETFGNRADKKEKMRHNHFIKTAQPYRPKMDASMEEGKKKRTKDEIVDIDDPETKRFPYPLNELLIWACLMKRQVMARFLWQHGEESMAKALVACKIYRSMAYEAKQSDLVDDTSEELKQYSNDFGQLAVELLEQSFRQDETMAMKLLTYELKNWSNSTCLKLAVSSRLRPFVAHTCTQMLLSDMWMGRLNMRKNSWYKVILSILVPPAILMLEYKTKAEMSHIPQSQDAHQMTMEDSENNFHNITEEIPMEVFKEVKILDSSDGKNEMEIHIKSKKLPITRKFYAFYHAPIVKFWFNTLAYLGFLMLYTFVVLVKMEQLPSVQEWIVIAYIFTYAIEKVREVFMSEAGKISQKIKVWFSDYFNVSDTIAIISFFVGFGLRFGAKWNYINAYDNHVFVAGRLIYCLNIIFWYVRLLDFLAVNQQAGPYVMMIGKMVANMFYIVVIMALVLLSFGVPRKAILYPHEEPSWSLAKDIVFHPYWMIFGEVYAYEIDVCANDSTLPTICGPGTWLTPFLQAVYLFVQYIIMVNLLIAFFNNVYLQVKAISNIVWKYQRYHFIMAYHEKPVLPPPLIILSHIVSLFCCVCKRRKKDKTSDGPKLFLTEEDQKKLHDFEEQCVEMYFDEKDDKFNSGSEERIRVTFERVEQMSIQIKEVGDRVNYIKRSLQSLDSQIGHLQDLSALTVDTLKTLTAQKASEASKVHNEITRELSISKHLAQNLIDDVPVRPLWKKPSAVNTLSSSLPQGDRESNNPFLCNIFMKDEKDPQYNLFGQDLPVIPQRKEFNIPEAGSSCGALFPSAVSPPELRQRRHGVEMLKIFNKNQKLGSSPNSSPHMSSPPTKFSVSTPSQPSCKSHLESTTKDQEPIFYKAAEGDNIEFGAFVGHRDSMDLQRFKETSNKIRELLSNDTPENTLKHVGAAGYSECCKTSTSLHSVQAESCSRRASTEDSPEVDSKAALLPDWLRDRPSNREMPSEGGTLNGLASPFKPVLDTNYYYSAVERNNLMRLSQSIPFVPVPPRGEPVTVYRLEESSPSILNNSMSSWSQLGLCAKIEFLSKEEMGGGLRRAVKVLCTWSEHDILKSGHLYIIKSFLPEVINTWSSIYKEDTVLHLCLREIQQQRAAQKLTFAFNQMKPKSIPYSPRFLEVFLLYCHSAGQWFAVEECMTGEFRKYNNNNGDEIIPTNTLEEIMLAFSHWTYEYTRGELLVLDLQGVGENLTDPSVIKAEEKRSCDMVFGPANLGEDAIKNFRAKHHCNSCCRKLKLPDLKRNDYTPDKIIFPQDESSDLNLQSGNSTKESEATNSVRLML

As to `c1ccc2c(c1)CCC[C@H]2Nc1nc2ccccc2[nH]1` [NS8593], the “current inhibition at 10 μM” value is “NS8593 caused a rapid inhibition of WT and N1097Q currents”.
